From US20210198277A1, “AMINE-SUBSTITUTED ARYL OR HETEROARYL COMPOUNDS” (Epizyme, Inc., priority 2016, published 2021)

Assays:
EHMT1 = molecular target: T1, EHMT1 (Homo sapiens, UniProt Q9H9B1); test: EHMT1 enzyme assay on peptide substrate (EHMT1 PEP); format: biochemical; details: Table III; read-out: EHMT1 PEP (IC50 μM)
T1 sequence (Q9H9B1 1-1298): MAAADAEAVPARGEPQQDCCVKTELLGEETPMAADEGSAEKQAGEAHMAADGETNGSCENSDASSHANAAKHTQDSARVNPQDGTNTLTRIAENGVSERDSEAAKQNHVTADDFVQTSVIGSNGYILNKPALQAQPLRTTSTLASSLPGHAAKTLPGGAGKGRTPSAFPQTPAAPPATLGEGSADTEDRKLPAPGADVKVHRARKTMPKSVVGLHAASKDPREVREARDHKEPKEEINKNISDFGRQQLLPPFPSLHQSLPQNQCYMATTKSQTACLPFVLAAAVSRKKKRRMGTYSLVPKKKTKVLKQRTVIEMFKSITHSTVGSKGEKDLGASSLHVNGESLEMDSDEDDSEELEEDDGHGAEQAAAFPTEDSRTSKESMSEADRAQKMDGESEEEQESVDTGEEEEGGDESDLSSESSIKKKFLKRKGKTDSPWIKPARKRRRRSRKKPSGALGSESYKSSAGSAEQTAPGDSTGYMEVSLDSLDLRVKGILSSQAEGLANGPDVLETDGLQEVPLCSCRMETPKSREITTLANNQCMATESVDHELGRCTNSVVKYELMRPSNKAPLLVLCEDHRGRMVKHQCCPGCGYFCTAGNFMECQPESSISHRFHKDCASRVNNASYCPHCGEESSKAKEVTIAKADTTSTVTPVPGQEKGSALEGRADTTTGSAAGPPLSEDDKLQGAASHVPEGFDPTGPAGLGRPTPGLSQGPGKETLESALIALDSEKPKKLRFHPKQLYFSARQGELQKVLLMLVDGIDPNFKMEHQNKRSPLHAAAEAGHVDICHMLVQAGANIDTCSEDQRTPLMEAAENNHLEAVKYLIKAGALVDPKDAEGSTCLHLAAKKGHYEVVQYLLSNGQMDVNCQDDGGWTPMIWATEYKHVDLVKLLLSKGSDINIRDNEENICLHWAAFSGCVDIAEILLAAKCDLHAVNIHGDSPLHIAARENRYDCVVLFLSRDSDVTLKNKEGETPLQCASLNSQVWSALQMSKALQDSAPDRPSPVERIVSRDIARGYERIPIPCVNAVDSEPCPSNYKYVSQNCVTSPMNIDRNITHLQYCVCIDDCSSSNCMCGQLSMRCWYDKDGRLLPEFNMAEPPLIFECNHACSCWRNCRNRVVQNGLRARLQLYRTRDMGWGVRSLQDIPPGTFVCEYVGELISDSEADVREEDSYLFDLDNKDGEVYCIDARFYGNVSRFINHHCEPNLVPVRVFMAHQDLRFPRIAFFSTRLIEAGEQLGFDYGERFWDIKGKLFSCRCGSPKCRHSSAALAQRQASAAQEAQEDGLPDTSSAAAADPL

human EHMT2 913-1193 = molecular target: T2, human EHMT2 913-1193 (Homo sapiens, UniProt Q96KQ7); test: EHMT2 enzyme assay on histone peptide substrate (EHMT2 PEP); format: biochemical; details: Table III; read-out: EHMT2 PEP (IC50 μM)
T2 construct: recombinant purified human EHMT2 913-1193, Viva; purchased Viva
T2 sequence (Q96KQ7 913-1193): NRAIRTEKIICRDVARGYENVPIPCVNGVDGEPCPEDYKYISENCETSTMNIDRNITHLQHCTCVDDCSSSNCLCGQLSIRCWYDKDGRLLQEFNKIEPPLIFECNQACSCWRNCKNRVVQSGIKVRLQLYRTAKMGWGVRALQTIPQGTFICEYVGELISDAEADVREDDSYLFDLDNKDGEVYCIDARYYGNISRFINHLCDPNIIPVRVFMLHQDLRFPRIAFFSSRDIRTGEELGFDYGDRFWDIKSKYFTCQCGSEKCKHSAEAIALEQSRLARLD
Procedure, shortened: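 Compounds were tested as 3-fold dilutions, 10 points from a 50 μM final top (2% DMSO), after 30-min preincubation with 0.031 nM enzyme in Bicine buffer pH 7.5. Transfer of ^3H-methyl from ^3H-SAM to biotinylated histone peptide ran 60 min at room temperature and was detected by streptavidin Flashplate scintillation.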

Compound	IC50 (EHMT1) [µM]	IC50 (human EHMT2 913-1193) [µM]
CNc1cc(C)nc(Nc2cc(F)c(OC)c(OCCCN3CCCC3)c2)n1 [Compound 301, N2-(3-fluoro-4-methoxy-5-(3-(pyrrolidin-1-yl)propoxy)phenyl)-N4,6-dimethylpyrimidine-2,4-diamine]	> 10	> 10
CNc1cc(C)nc(Nc2cc(OCCCN3CCCC3)c(OC)cc2F)n1 [Compound 302, N^2-(2-fluoro-4-methoxy-5-(3-(pyrrolidin-1-yl)propoxy)phenyl)-N^4,6-dimethylpyrimidine-2,4-diamine]	1 to 10	1 to 10
CNc1cc(C)nc(Nc2cc(OCCCN3CCCC3)c(OC)cn2)n1 [Compound 303, N^2-(5-methoxy-4-(3-(pyrrolidin-1-yl)propoxy)pyridin-2-yl)-N^4,6-dimethylpyrimidine-2,4-diamine]	0.1 to 1	< 0.1
COc1cnc(Nc2nccc3[nH]ccc23)cc1OCCCN1CCCC1 [Compound 304]	< 0.1	< 0.1
CNc1ccnc(Nc2cc(OCCCN3CCCC3)c(OC)cn2)c1 [Compound 305, N^2-(5-methoxy-4-(3-(pyrrolidin-1-yl)propoxy)pyridin-2-yl)-N^4-methylpyridine-2,4-diamine]	< 0.1	< 0.1
CNc1nc(C)cc(Nc2cc(OCCCN3CCCC3)c(OC)cn2)n1 [Compound 306, N^4-(5-methoxy-4-(3-(pyrrolidin-1-yl)propoxy)pyridin-2-yl)-N^2,6-dimethylpyrimidine-2,4-diamine]	> 10	1 to 10
CNc1cc(C)nc(Nc2cc(OCCCN3CCCC3)c(OC)cn2)c1 [Compound 307, N^2-(5-methoxy-4-(3-(pyrrolidin-1-yl)propoxy)pyridin-2-yl)-N^4,6-dimethylpyridine-2,4-diamine]	< 0.1	< 0.1
CNc1cc(Nc2cc(OCCCN3CCCC3)c(OC)cn2)cc(C)n1 [Compound 308, N^4-(5-methoxy-4-(3-(pyrrolidin-1-yl)propoxy)pyridin-2-yl)-N^2,6-dimethylpyridine-2,4-diamine]	0.1 to 1	0.1 to 1
CNc1cc(Nc2cc(OCCCN3CCCC3)c(OC)cn2)nc(C)c1F [Compound 309, 5-fluoro-N^2-(5-methoxy-4-(3-(pyrrolidin-1-yl)propoxy)pyridin-2-yl)-N^4,6-dimethylpyridine-2,4-diamine]	< 0.1	< 0.1
COc1cnc(Nc2nc(C)cc3[nH]ccc23)cc1OCCCN1CCCC1 [Compound 310]	0.1 to 1	0.1 to 1
CNc1cc(C)nc(Nc2ccc(OC)c(OCCOC)c2)n1 [Compound 311, N^2-(4-methoxy-3-(2-methoxyethoxy)phenyl)-N^4,6-dimethylpyrimidine-2,4-diamine]	> 10	> 10
CNc1cc(C)nc(Nc2ccc(OC)c(OCCCOC)c2)n1 [Compound 312, N^2-(4-methoxy-3-(3-methoxypropoxy)phenyl)-N^4,6-dimethylpyrimidine-2,4-diamine]	> 10	> 10
CNc1cc(C)nc(Nc2ccc(C3CC3)c(OCCCN3CCCC3)c2)n1 [Compound 313, N^2-(4-cyclopropyl-3-(3-(pyrrolidin-1-yl)propoxy)phenyl)-N^4,6-dimethylpyrimidine-2,4-diamine]	0.1 to 1	0.1 to 1
CNc1ccnc(Nc2ccc(C3CC3)c(OCCCN3CCCC3)c2)n1 [Compound 314, N^2-(4-cyclopropyl-3-(3-(pyrrolidin-1-yl)propoxy)phenyl)-N^4-methylpyrimidine-2,4-diamine]	0.1 to 1	0.1 to 1
CNc1cc(C)nc(Nc2ccc(OC)c(OC[C@H]3C[C@@H](N(C)C)C3)c2)n1 [Compound 316]	0.1 to 1	1 to 10
CNc1cc(C)nc(Nc2ccc(OC)c(O[C@H]3C[C@@H](CN(C)C)C3)c2)n1 [Compound 318, N^2-(3-((1s,3s)-3-((dimethylamino)methyl)cyclobutoxy)-4-methoxyphenyl)-N^4,6-dimethylpyrimidine-2,4-diamine]	> 10	> 10
CCc1nc(Nc2ccc(OC)c(OCCCN3CCCC3)c2)nc(NC)c1F [Compound 319, 6-ethyl-5-fluoro-N^2-(4-methoxy-3-(3-(pyrrolidin-1-yl)propoxy)phenyl)-N^4-methylpyrimidine-2,4-diamine]	0.1 to 1	0.1 to 1
CNc1cc(C2CC2)nc(Nc2ccc(OC)c(OCCCN3CCCC3)c2)n1 [Compound 320, 6-cyclopropyl-N^2-(4-methoxy-3-(3-(pyrrolidin-1-yl)propoxy)phenyl)-N^4-methylpyrimidine-2,4-diamine]	< 0.1	< 0.1
COc1cnc(Nc2cnc3ccccn23)cc1OCCCN1CCCC1 [Compound 321, N-(5-methoxy-4-(3-(pyrrolidin-1-yl)propoxy)pyridin-2-yl)imidazo[1,2-a]pyridin-3-amine]	1 to 10	1 to 10
CNc1ccnc(Nc2ccc(OC)c(OCCCN3CC(C)C3)c2)n1 [Compound 423, N^2-(4-methoxy-3-(3-(3-methylazetidin-1-yl)propoxy)phenyl)-N^4-methylpyrimidine-2,4-diamine]	0.1 to 1	0.1 to 1
CNc1ccnc(Nc2ccc(OC)c(OCCCN(C)CC3CC3)c2)n1 [Compound 424, N^2-(3-(3-((cyclopropylmethyl)(methyl)amino)propoxy)-4-methoxyphenyl)-N^4-methylpyrimidine-2,4-diamine]	1 to 10	1 to 10
CNc1ccnc(Nc2ccc(OC)c(OCCCN3CC(OC)C3)c2)n1 [Compound 425, N^2-(4-methoxy-3-(3-(3-methoxyazetidin-1-yl)propoxy)phenyl)-N^4-methylpyrimidine-2,4-diamine]	0.1 to 1	0.1 to 1
CNc1ccnc(Nc2ccc(OC)c(OCc3cc(C4CC4)on3)c2)n1 [Compound 426, N^2-(3-((5-cyclopropylisoxazol-3-yl)methoxy)-4-methoxyphenyl)-N^4-methylpyrimidine-2,4-diamine]	> 10	> 10
CNc1ccnc(N[C@@H]2CCC[C@H](OCCCN3CCCC3)C2)n1 [Compound 427]	> 10	> 10
CNc1cc(CC(F)(F)F)nc(Nc2ccc(OC)c(OCCCN3CCCC3)c2)n1 [Compound 428, N^2-(4-methoxy-3-(3-(pyrrolidin-1-yl)propoxy)phenyl)-N^4-methyl-6-(2,2,2-trifluoroethyl)pyrimidine-2,4-diamine]	1 to 10	1 to 10
CNc1ccnc(Nc2ccc(OC)c(OCCCN3CCC3C)c2)n1 (stereo not shown) [Compound 429, N^2-(4-methoxy-3-(3-(2-methylazetidin-1-yl)propoxy)phenyl)-N^4-methylpyrimidine-2,4-diamine]	0.1 to 1	0.1 to 1
CCOc1ccc(Nc2nccc(NC)n2)cc1OCCCN1CCCC1 [Compound 430, N^2-(4-ethoxy-3-(3-(pyrrolidin-1-yl)propoxy)phenyl)-N^4-methylpyrimidine-2,4-diamine]	> 10	> 10
CCOc1ccc(Nc2nccc(NC)n2)cc1OCC1CCN(C)C1 (stereo not shown) [Compound 431]	> 10	> 10
CCOc1ccc(Nc2nc(C)cc(NC)n2)cc1OCCCN1CCCC1 [Compound 432, N^2-(4-ethoxy-3-(3-(pyrrolidin-1-yl)propoxy)phenyl)-N^4,6-dimethylpyrimidine-2,4-diamine]	> 10	> 10
